Here are results for ten compounds from patent US11028064B2, “Tricyclic heterocyclic derivatives and uses thereof” (AUCKLAND UNISERVICES LIMITED, priority 2016, dated 2021).

Usually IC50 stands for the concentration that gives 50% inhibition.

Each structure is given as a SMILES string.

One experiment has as its target CSF-1R (FMS) (Homo sapiens (Human), UniProt P07333). Put plainly: SelectScreen Z'-LYTE kinase assay, Assay 336 for CSF-1R (FMS). Conditions: Z'-LYTE activity assay, 500 μM ATP (Km app); read-out: CSF-1R Enzyme IC50. The format is biochemical.
The next experiment concerns the target KDR (VEGFR2) (Homo sapiens (Human), UniProt P35968). Kind of experiment: SelectScreen Z'-LYTE kinase assay, Assay 540 for KDR (VEGFR2). It counts as biochemical. Conditions: Z'-LYTE activity assay, 75 μM ATP (Km app); read-out: VEGFR2 Enzyme IC50.

Chain of CSF-1R (FMS) (P07333 20-972): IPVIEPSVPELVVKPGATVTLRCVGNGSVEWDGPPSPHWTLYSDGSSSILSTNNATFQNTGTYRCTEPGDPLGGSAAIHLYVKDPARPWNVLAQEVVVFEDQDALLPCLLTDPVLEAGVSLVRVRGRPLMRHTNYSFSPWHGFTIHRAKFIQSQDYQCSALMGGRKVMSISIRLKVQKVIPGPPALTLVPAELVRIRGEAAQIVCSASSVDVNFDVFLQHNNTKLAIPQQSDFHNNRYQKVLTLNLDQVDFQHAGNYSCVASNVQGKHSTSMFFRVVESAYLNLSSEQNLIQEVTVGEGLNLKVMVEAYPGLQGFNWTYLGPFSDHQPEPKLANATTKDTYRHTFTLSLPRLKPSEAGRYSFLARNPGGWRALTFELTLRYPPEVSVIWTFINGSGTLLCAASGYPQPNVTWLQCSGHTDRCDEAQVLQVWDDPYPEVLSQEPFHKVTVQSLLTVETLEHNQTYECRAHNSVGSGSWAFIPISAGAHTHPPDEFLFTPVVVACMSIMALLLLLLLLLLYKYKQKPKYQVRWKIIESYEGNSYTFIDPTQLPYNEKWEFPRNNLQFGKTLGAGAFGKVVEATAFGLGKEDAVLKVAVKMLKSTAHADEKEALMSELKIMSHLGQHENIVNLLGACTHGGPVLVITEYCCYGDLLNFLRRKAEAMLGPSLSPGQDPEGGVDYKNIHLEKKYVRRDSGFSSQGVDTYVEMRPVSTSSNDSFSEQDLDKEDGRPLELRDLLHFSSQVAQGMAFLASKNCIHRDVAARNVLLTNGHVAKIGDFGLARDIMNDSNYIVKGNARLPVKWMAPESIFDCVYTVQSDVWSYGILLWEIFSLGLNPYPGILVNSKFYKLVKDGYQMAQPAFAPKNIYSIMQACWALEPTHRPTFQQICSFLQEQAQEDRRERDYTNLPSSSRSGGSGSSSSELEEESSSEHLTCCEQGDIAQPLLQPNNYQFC
Chain of KDR (VEGFR2) (P35968 20-1356): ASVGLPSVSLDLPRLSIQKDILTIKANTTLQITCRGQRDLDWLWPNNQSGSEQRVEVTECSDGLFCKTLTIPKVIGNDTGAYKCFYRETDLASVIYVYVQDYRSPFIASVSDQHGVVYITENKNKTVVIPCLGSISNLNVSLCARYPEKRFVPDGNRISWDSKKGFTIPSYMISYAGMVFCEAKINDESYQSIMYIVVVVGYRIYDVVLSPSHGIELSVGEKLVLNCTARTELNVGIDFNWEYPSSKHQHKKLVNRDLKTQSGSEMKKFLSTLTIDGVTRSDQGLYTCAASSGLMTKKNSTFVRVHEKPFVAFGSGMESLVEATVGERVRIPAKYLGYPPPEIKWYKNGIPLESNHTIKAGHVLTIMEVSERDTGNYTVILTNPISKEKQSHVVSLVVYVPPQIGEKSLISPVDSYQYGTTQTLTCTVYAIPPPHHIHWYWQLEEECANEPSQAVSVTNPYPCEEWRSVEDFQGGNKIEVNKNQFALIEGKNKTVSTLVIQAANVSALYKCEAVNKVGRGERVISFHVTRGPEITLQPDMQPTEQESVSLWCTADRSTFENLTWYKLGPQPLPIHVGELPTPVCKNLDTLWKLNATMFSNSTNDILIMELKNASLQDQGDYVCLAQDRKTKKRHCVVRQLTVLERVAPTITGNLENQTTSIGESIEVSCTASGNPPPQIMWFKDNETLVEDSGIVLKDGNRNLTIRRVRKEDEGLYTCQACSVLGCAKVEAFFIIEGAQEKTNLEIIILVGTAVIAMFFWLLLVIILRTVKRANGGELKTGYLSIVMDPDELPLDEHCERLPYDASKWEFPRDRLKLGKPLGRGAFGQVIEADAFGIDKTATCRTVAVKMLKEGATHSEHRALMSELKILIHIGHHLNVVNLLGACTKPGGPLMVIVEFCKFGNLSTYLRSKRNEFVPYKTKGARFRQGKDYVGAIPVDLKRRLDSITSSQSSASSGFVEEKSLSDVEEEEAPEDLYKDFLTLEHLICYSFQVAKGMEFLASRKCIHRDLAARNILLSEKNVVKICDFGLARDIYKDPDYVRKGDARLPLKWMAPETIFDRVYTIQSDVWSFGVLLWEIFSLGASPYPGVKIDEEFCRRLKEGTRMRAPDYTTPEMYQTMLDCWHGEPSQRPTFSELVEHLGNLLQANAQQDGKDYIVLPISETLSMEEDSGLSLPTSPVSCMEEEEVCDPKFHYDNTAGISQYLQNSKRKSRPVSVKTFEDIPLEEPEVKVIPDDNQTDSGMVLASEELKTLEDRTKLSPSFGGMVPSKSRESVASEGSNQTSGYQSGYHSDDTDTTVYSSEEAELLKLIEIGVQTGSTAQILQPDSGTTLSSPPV

For the compound `Cc1cc(OCCN(C)C)c2oc3cc(Oc4ccc(NCc5ccc(OC(F)(F)F)cc5)nc4)ccc3c(=O)c2c1` [Example 15, 4-(2-(Dimethylamino)ethoxy)-2-methyl-6-((6-((4-(trifluoromethoxy)benzyl)amino)-pyridin-3-yl)oxy)-9H-xanthen-9-one], the IC50 on CSF-1R (FMS) is under 100 nM; at KDR (VEGFR2), over 10000 nM.

For the compound `Cc1cc(OCCN(C)C)c2oc3cc(Oc4cccnc4)ccc3c(=O)c2c1` [Example 53, 4-(2-(Dimethylamino)ethoxy)-2-methyl-6-(pyridin-3-yloxy)-9H-xanthen-9-one], the IC50 at CSF-1R (FMS) was 100 to 1000 nM; on KDR (VEGFR2) it was over 10000 nM.

For `Cc1cc(OCCCCN(C)C)c2oc3cc(Oc4ccccc4)ccc3c(=O)c2c1` [Example 34, 4-(4-(Dimethylamino)butoxy)-2-methyl-6-phenoxy-9H-xanthen-9-one], the values for the IC50 at CSF-1R (FMS) and at KDR (VEGFR2) were 100 to 1000 nM and 1000 to 10000 nM, respectively.

Consider `Cc1cc(OCCN(C)C)cc2c(=O)c3ccc(Oc4ccc(CCC(=O)NC5CCCC5)nc4)cc3oc12` [Example 45, N-Cyclopentyl-3-(5-((7-(2-(dimethylamino)ethoxy)-5-methyl-9-oxo-9H-xanthen-3-yl)oxy)pyridin-2-yl)propanamide], for which the values for the IC50 at CSF-1R (FMS) and on KDR (VEGFR2) were under 100 nM and 1000 to 10000 nM, respectively.

As for `CN(C)CCOc1cccc2c(=O)c3ccc(Oc4cccc(C(=O)Nc5ccccc5)c4)cc3oc12` [Example 2, 3-({5-[2-(Dimethylamino)ethoxy]-9-oxo-9H-xanthen-3-yl}oxy)-N-phenylbenzamide], the IC50 at CSF-1R (FMS) was under 100 nM; at KDR (VEGFR2), 1000 to 10000 nM.

As for `COc1ccc(Oc2ccc3c(=O)c4cc(C)cc(OCCN(C)C)c4oc3c2)cn1` [Example 8, 4-(2-(Dimethylamino)ethoxy)-6-((6-methoxypyridin-3-yl)oxy)-2-methyl-9H-xanthen-9-one], the concentration for half-maximal inhibition (IC50) is 100 to 1000 nM at CSF-1R (FMS) and over 10000 nM on KDR (VEGFR2).

With `COc1ccc(Cc2ccc3c(=O)c4cc(C)cc(OCCN(C)C)c4oc3c2)cn1` [Example 19, 4-(2-(Dimethylamino)ethoxy)-6-((6-methoxypyridin-3-yl)methyl)-2-methyl-9H-xanthen-9-one], the IC50 on CSF-1R (FMS) was 100 to 1000 nM; on KDR (VEGFR2), over 10000 nM.

For `Cc1cc(OCCN(C)C)c2oc3cc(Oc4ccc(NCC(=O)NC5CCCC5)nc4)ccc3c(=O)c2c1` [Example 25, N-Cyclopentyl-2-((5-((5-(2-(dimethylamino)ethoxy)-7-methyl-9-oxo-9H-xanthen-3-yl)oxy)pyridin-2-yl)amino)acetamide], the values for the IC50 on CSF-1R (FMS) and on KDR (VEGFR2) were under 100 nM and over 10000 nM, respectively.

As for `Cc1cc(OCCCN2CCN(C(C)C)CC2)c2oc3cc(Oc4ccc(CCC(=O)NC5CCCC5)nc4)ccc3c(=O)c2c1` [Example 66, N-Cyclopentyl-3-(5-((5-(3-(4-isopropylpiperazin-1-yl)propoxy)-7-methyl-9-oxo-9H-xanthen-3-yl)oxy)pyridin-2-yl)propanamide], the IC50 on CSF-1R (FMS) was under 100 nM; on KDR (VEGFR2) it was 1000 to 10000 nM.

Consider `Cc1cc(OCCN2C[C@@H](C)N(C)[C@@H](C)C2)c2oc3cc(Oc4ccc(CCC(=O)NC5CCCC5)nc4)ccc3c(=O)c2c1` [Example 62, N-Cyclopentyl-3-(5-((7-methyl-9-oxo-5-(2-((3S,5R)-3,4,5-trimethylpiperazin-1-yl)ethoxy)-9H-xanthen-3-yl)oxy)pyridin-2-yl)propanamide], for which the IC50 on CSF-1R (FMS) is under 100 nM; at KDR (VEGFR2), over 10000 nM.
